According to patent US9409952B2, “Peptide-compound cyclization method” (Chugai Seiyaku Kabushiki Kaisha, priority 2011, dated 2016):
Where two headings read alike, the source gives them in different places. Values belong to the molecule of their own block, whether it stands above or below them. Starred links: 1 amine or outer side, 2 acyl side, 3 side chain; linkers in the order of their positions; H or OH if unused. Positions of bridges follow the written chain, without caps; N, C: chain ends. Non-standard residues stand in square brackets, D forms with d. Residues, ends and D or L forms follow the SMILES beside them. *: point of attachment. Phe(3-(CH2)4CO) = O=C([C@H](Cc1cccc(CCCCC(=O)[*:3])c1)N[*:1])[*:2]; Phe(4-CF3) = N[C@@H](Cc1ccc(C(F)(F)F)cc1)C(=O)O; NMePhe(3-Cl) = CN[C@@H](Cc1cccc(Cl)c1)C(=O)O; NMeF = CN[C@@H](Cc1ccccc1)C(=O)O; NMeGABA = CN(CCCC(=O)[*:2])[*:1]; NMeI = CC[C@H](C)[C@H](NC)C(=O)O; Aoc(2) = CCCCCC[C@H](N)C(=O)O; NMeL = CN[C@@H](CC(C)C)C(=O)O; NMeV = CN[C@H](C(=O)O)C(C)C; NMeA = CN[C@@H](C)C(=O)O; Piperidide = C1CCN(*)CC1; dNMeA = CN[C@H](C)C(=O)O; β3hA = C[C@H](N)CC(=O)O; Sar = CNCC(=O)O; tBu = CC(C)(C)*

What was measured:
[1] = PAMPA (parallel artificial membrane permeability assay); type: in vitro ADME; conditions: PAMPA
Summary of the method: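 Artificial membrane was 10% (w/v) egg lecithin plus 0.5% (w/v) cholesterol in dodecane on a PVDF filter. A 10 mM DMSO stock was added at 0.5% (v/v) to donor buffer (50 mM MOPSO, pH 6.5, 5.0% glycocholic acid). After 18 h at 37 °C, LC/MS or LC/UV gave donor and acceptor levels for Pe.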

[2] = Metabolic stability in human hepatic microsome; type: in vitro ADME; conditions: microsomes
[3] = membrane permeation rate (Pe), 50 mM MOPSO buffer pH 6.5 with 5.0% glycocholic acid, 37° C., 18 hours, read-out: iPAMPA Pe
[4] = pH 7.4, human hepatic microsome, NADPH(+), read-out: CL NADPH(+)

SMILES: CC[C@H](C)[C@H]1C(=O)N[C@@H](COC(C)(C)C)C(=O)N(C)[C@@H](C(C)C)C(=O)N[C@@H](C)CC(=O)N(C)[C@@H](C)C(=O)N(C)[C@@H](Cc2ccccc2)C(=O)N[C@@H](CC(C)C)C(=O)N(C)[C@@H](CC(C)C)C(=O)N[C@@H]([C@@H](C)O)C(=O)N(C)CC(=O)N1C [DP-820] (cyclo(L[NMeL]T[Sar][NMeI]S(tBu)[NMeV][β3hA][NMeA][NMeF]))
Papp at 18 hours, 50 µM [1, 3]: 48 ×10⁻⁶ cm/s
microsomal CLint at 1 uM [2, 4]: 511 µL/min/mg

SMILES: CC[C@H](C)[C@H]1C(=O)N[C@@H](COC(C)(C)C)C(=O)N(C)[C@@H](C(C)C)C(=O)N[C@@H](C)CC(=O)N(C)[C@@H](CC(C)C)C(=O)N(C)[C@@H](Cc2ccccc2)C(=O)N[C@@H](CC(C)C)C(=O)N(C)[C@@H](CC(C)C)C(=O)N[C@@H]([C@@H](C)O)C(=O)N(C)CC(=O)N1C [DP-821] (cyclo(L[NMeL]T[Sar][NMeI]S(tBu)[NMeV][β3hA][NMeL][NMeF]))
Papp at 18 hours, 50 µM [1, 3]: 62 ×10⁻⁶ cm/s
microsomal CLint at 1 uM [2, 4]: 547 µL/min/mg

SMILES: CCCCCC[C@@H]1NC(=O)[C@H](Cc2ccccc2)N(C)C(=O)[C@H](C)N(C)C(=O)C[C@H](C)NC(=O)[C@H](C(C)C)N(C)C(=O)[C@H](COC(C)(C)C)NC(=O)[C@H](C)N(C)C(=O)CN(C)C(=O)[C@H]([C@@H](C)O)NC(=O)[C@H](CC(C)C)N(C)C1=O [DP-822] (cyclo([Aoc(2)][NMeL]T[Sar][NMeA]S(tBu)[NMeV][β3hA][NMeA][NMeF]))
Papp at 18 hours, 50 µM [1, 3]: 37 ×10⁻⁶ cm/s
microsomal CLint at 1 uM [2, 4]: 518 µL/min/mg

SMILES: CC[C@H](C)[C@@H]1NC(=O)[C@H](CC(C)C)N(C)C(=O)[C@H](C)NC(=O)CCCN(C)C(=O)C[C@H](C)NC(=O)[C@H]([C@@H](C)O)NC(=O)[C@H](Cc2ccccc2)NC(=O)[C@H](C(C)C)N(C)C(=O)[C@H](CC(C)C)N(C)C1=O [DP-823] (cyclo(A[NMeL]I[NMeL][NMeV]FT[β3hA][NMeGABA]))
Papp at 18 hours, 50 µM [1, 3]: 31 ×10⁻⁶ cm/s
microsomal CLint at 1 uM [2, 4]: 254 µL/min/mg

SMILES: CC[C@H](C)[C@@H]1NC(=O)[C@H](CC(C)C)N(C)C(=O)[C@H](C)NC(=O)CCCN(C)C(=O)C[C@H](C)NC(=O)[C@H]([C@@H](C)O)NC(=O)[C@H](Cc2ccccc2)NC(=O)[C@H](C(C)C)N(C)C(=O)[C@H](Cc2ccccc2)N(C)C1=O [DP-824] (cyclo(A[NMeL]I[NMeF][NMeV]FT[β3hA][NMeGABA]))
Papp at 18 hours, 50 µM [1, 3]: 29 ×10⁻⁶ cm/s
microsomal CLint at 1 uM [2, 4]: 501 µL/min/mg

SMILES: CC(C)C[C@@H]1NC(=O)[C@@H](C(C)C)NC(=O)C[C@H](C)NC(=O)[C@H](CC(C)C)N(C)C(=O)[C@H](CC(C)C)N(C)C(=O)[C@H](Cc2ccc(C(F)(F)F)cc2)NC(=O)[C@H](C)N(C)C(=O)[C@H]([C@@H](C)O)NC1=O [DP-825] (cyclo(LT[NMeA][Phe(4-CF3)][NMeL][NMeL][β3hA][dV]))
Papp at 18 hours, 50 µM [1, 3]: 39 ×10⁻⁶ cm/s
microsomal CLint at 1 uM [2, 4]: 168 µL/min/mg

SMILES: CC[C@H](C)[C@H]1C(=O)N[C@@H](C)CC(=O)N(C)[C@H](C)C(=O)N(C)[C@@H](CC(C)C)C(=O)N[C@@H]([C@@H](C)O)C(=O)N(C)CC(=O)N[C@@H](COC(C)(C)C)C(=O)N(C)[C@@H](CC(C)C)C(=O)N1C [DP-826] (cyclo([NMeI][β3hA][dNMeA][NMeL]T[Sar]S(tBu)[NMeL]))
Papp at 18 hours, 50 µM [1, 3]: 30 ×10⁻⁶ cm/s
microsomal CLint at 1 uM [2, 4]: 213 µL/min/mg

Papp at 18 hours, 50 µM ([1]; pH 6.5): 5.8 ×10⁻⁶ cm/s
microsomal CLint at 1 uM ([2]; human, pH 7.4, CL NADPH(+)): 49 µL/min/mg
SMILES: CC[C@H](C)[C@H]1C(=O)NCC(=O)N(C)[C@@H](C)C(=O)N[C@@H](CC(C)C)C(=O)N[C@@H](C)CC(=O)N(C)[C@@H](C)C(=O)N[C@@H](CC(C)C)C(=O)N(C)[C@@H](C)C(=O)N[C@@H]([C@@H](C)O)C(=O)N2CCC[C@H]2C(=O)N1C [DP-827] (cyclo(G[NMeA]L[β3hA][NMeA]L[NMeA]TP[NMeI]))

SMILES: CC[C@H](C)[C@@H]1NC(=O)[C@H](CC(C)C)N(C)C(=O)[C@@H](C(C)C)NC(=O)C[C@H](C)NC(=O)[C@H](CC(C)C)N(C)C(=O)[C@H](C)N(C)C(=O)[C@H]([C@@H](C)O)NC(=O)[C@H](Cc2cccc(Cl)c2)N(C)C(=O)[C@H](C)N(C)C1=O [DP-828] (cyclo(I[NMeA][NMePhe(3-Cl)]T[NMeA][NMeL][β3hA][dV][NMeL]))
Papp at 18 hours, 50 µM [1, 3]: 42 ×10⁻⁶ cm/s
microsomal CLint at 1 uM [2, 4]: 154 µL/min/mg

SMILES: CC(C)C[C@@H]1NC(=O)[C@H](C)NC(=O)C[C@H](C)NC(=O)[C@H](C(C)C)N(C)C(=O)[C@H](CC(C)C)N(C)C(=O)[C@H]([C@@H](C)O)NC(=O)[C@H](Cc2ccc(C(F)(F)F)cc2)NC(=O)[C@H](C)N(C)C(=O)CNC(=O)[C@H](CC(C)C)N(C)C(=O)[C@H](C)N(C)C1=O [DP-829] (cyclo(AL[NMeA][NMeL]G[NMeA][Phe(4-CF3)]T[NMeL][NMeV][β3hA]))
Papp at 18 hours, 50 µM [1, 3]: 21 ×10⁻⁶ cm/s
microsomal CLint at 1 uM [2, 4]: 65 µL/min/mg

SMILES: C=C1CCC(=O)N(C)[C@@H](Cc2ccccc2)C(=O)N(C)CC(=O)N(C)[C@@H](CC(C)C)C(=O)N[C@@H]([C@@H](C)O)C(=O)N(C)[C@@H](C)C(=O)N(C)[C@@H](CC(C)C)C(=O)N(C)[C@@H]([C@@H](C)CC)C(=O)N[C@@H](COC(C)(C)C)C(=O)N[C@H](C(=O)N2CCCCC2)Cc2cccc1c2 [DP-831]
Papp at 18 hours, 50 µM ([1]; pH 6.5): 55 ×10⁻⁶ cm/s
microsomal CLint at 1 uM ([2]; human, pH 7.4, CL NADPH(+)): 683 µL/min/mg

SMILES: C=C1CCC(=O)N(C)[C@@H](Cc2ccccc2)C(=O)N(C)[C@@H](CC(C)C)C(=O)N[C@@H]([C@@H](C)CC)C(=O)N(C)[C@@H](C)C(=O)N(C)[C@@H](Cc2ccccc2)C(=O)N[C@@H]([C@@H](C)O)C(=O)N(C)[C@@H](C)C(=O)N(C)[C@@H](CC(C)C)C(=O)N[C@H](C(=O)N2CCCCC2)Cc2cccc1c2 [DP-834]
Papp at 18 hours, 50 µM ([1]; pH 6.5): 14 ×10⁻⁶ cm/s
microsomal CLint at 1 uM ([2]; human, pH 7.4, CL NADPH(+)): 501 µL/min/mg

SMILES: CC[C@H](C)[C@@H]1NC(=O)[C@H](CC(C)C)N(C)C(=O)[C@H](Cc2ccccc2)N(C)C(=O)CCCCc2cccc(c2)C[C@@H](C(=O)N2CCCCC2)NC(=O)[C@H](CC(C)C)N(C)C(=O)[C@H](C)N(C)C(=O)[C@H]([C@@H](C)O)NC(=O)[C@H](Cc2ccccc2)N(C)C(=O)[C@H](C)N(C)C1=O [DP-836] ([NMeF][NMeL]I[NMeA][NMeF]T[NMeA][NMeL][Phe(3-(CH2)4CO)]-Piperidide; lactam N-9)
Papp at 18 hours, 50 µM [1, 3]: 18 ×10⁻⁶ cm/s
microsomal CLint at 1 uM [2, 4]: 552 µL/min/mg

SMILES: CC(C)C[C@H]1C(=O)N[C@@H](COC(C)(C)C)C(=O)N(C)[C@@H](CC(C)C)C(=O)N[C@H](C(=O)N2CCCCC2)Cc2cccc(c2)CCCCC(=O)N(C)[C@@H](C)C(=O)N(C)[C@@H](Cc2ccccc2)C(=O)N(C)[C@@H](CC(C)C)C(=O)N[C@@H]([C@@H](C)O)C(=O)N(C)CC(=O)N1C [DP-838] ([NMeA][NMeF][NMeL]T[Sar][NMeL]S(tBu)[NMeL][Phe(3-(CH2)4CO)]-Piperidide; lactam N-9)
Papp at 18 hours, 50 µM [1, 3]: 54 ×10⁻⁶ cm/s
microsomal CLint at 1 uM [2, 4]: 224 µL/min/mg

SMILES: CC[C@H](C)[C@H]1C(=O)N(C)[C@@H](CC(C)C)C(=O)N[C@H](C(=O)N2CCCCC2)Cc2cccc(c2)CCCCC(=O)N[C@@H]([C@@H](C)O)C(=O)N(C)[C@@H](C)C(=O)N(C)[C@@H](Cc2ccccc2)C(=O)N(C)[C@@H](Cc2ccccc2)C(=O)N(C)[C@@H](CC(C)C)C(=O)NCC(=O)N1C [DP-840] (T[NMeA][NMeF][NMeF][NMeL]G[NMeI][NMeL][Phe(3-(CH2)4CO)]-Piperidide; lactam N-9)
Papp at 18 hours, 50 µM [1, 3]: 64 ×10⁻⁶ cm/s
microsomal CLint at 1 uM [2, 4]: 357 µL/min/mg

SMILES: CC(C)C[C@H]1C(=O)N[C@H](C(=O)N2CCCCC2)Cc2cccc(c2)CCCCC(=O)N[C@@H]([C@@H](C)O)C(=O)N(C)[C@@H](C)C(=O)N(C)[C@@H](Cc2ccccc2)C(=O)NCC(=O)N(C)[C@@H](Cc2ccccc2)C(=O)N(C)[C@@H](CC(C)C)C(=O)N(C)[C@@H](CC(C)C)C(=O)N1C [DP-843] (T[NMeA][NMeF]G[NMeF][NMeL][NMeL][NMeL][Phe(3-(CH2)4CO)]-Piperidide; lactam N-9)
Papp at 18 hours, 50 µM [1, 3]: 31 ×10⁻⁶ cm/s
microsomal CLint at 1 uM [2, 4]: 505 µL/min/mg
